Measurements taken from patent US9943525B2, “Composition for reducing cell senescence comprising Rho-kinase inhibitor and use thereof” (Samsung Electronics Co., Ltd., priority 2014, dated 2018).

System: full-thickness punch-biopsy wounds on the dorsal skin of old (19 months old) male C57BL/6J mice
Experiment: cutaneous wound healing assay in aged mice
Format: in vivo, mouse
Details: 0.5 mL 10 μM in 30% Pluronic gel applied to wounds every day, FIG. 23
Procedure: To further test whether ROCK inhibitor can promote cutaneous wound healing in old (19 months old) male mice (C57BL/6J mice), four full-thickness punch-biopsy wounds (8 mm in diameter)(four wound sites/mouse, five mice/group) were created on the dorsal skin of mouse, 0.5 mL 10 μM Y-27632 in 30% Pluronic gel (Pluronic F-127 Sigma, P2443-1KG) was applied to wounds every day, and then covered the wounds with Telfa sponges (Kendall Health Care, Mansfield, Mass., USA). DMSO was used as a control. All animal studies were reviewed and approved by the […] Animal Care and Use Committee of SKKU School of Medicine (SUSM). SUSM is an Association for Assessment and Accreditation of Laboratory Animal Care international accredited facility and abides by the Institute for Laboratory Animal Research guide. Wounds were photographed for 10 days. Immunohistochemistry analyses were performed on 5 μm paraffin embedded sections as described previously (Lin et. al., 2004. Developmental Biology 270, 474-486). Primary antibodies used for immunohistochemistry were mouse anti-α-smooth muscle actin (Sigma, F3777-2ML, 1:500), and mouse anti-PCNA (Santa Cruz Biotechnology, SC-56, 1:500). Secondary antibodies used for immunohistochemistry were EnVisionTM Detection System (DAKO, […]). […]

C[C@@H](N)[C@H]1CC[C@H](C(=O)Nc2ccncc2)CC1 [Y-27632, (1R,4R)-4-((R)-1-aminoethyl)-N-(pyridin-4-yl)cyclohexanecarboxamide]
wound healing (wound appearance) (day 10, DMSO-treated wounds still showed remnants of scabs): near completion
wound healing process (wound size) (early points (days 3), vs DMSO, P<0.01): markedly accelerated
